The values below come from patent US20250041408A1, “SMALL MOLECULE IMMUNOPOTENTIATOR CONJUGATES OF NFKB ACTIVATORS AS ADJUVANTS WITH ENHANCED EFFICACY AND REDUCED TOXICITY” (THE UNIVERSITY OF CHICAGO, priority 2021, published 2025).

The conditions of data set [1]: with CPG in vaccine formulations; vaccine protective effects maintained; cited from earlier work.
The test system of the next data set is cells from the dLNs. Briefly: Cytokines from draining lymph node cells re-stimulated with OVA (CBA). It counts as in vivo, C57Bl/6 mice. As to conditions: re-stimulated with OVA for 48 hours.
In data set [2] the test system is BMDMs. Briefly: TNF-α in supernatant of BMDMs by ELISA. It counts as cell-based, C57Bl/6 mice. The following applies: treated BMDMs; compared with pTLR7/8 and mTLR7/8.
Data set [3] deals with BMDMs. Briefly: Flow cytometry of costimulatory molecules CD40 and CD86 on BMDMs. As to conditions: 18 h at 37° C. In kind it is cell-based, C57Bl/6 mice. How it is done: FIGS. 2A-B show immune activation as measured by costimulatory molecules CD40 (FIG. 2A) and CD86 (FIG. 2B) on BMDMs. Cells were incubated with each compound for 18 h at 37° C. Error bars represent SD. Samples were run in triplicate. […] Each experiment was repeated thrice with similar results.
Flow Cytometry for Cell Surface Marker Upregulation: BMDCs were plated in untreated 12-well plates at 1×10^6 cells/mL and incubated with agonists in culture media for 18 h at 37° C. with 5% CO2. The cells were released from the plate by pipetting vigorously and centrifuged at 2500 RPM at 4° C. for 10 min. The cell pellet was resuspended in cold FACS buffer (PBS, 10% FBS, and 0.1% sodium azide) buffer (300 μL) and incubated with CD16/32 FcR blocking antibodies (1.0 μg/1×10^6 cells) on ice for 15 min. The cell suspension was pelleted, and the supernatant was removed. Next, the cell pellet was resuspended in cold FACS buffer (100 μL) and stained for CD86 and CD40 in the dark for 30 min. The samples were then washed twice with 300 μL FACS buffer. The pelleted cells were resuspended in cold FACS buffer (200 μL) and kept on ice until being loaded onto the flow cytometer for analysis.

The next data set relates to OVA. Put plainly: Serum anti-OVA IgG titers after OVA immunization (ELISA). It counts as in vivo, C57Bl/6 mice. The following applies: immunized days 0 and 14; ELISA at 3 weeks.
Data set [4] concerns NF-κB in RAW-Blue 264.7 macrophage cells. Put plainly: RAW-Blue 264.7 macrophage NF-κB assay (polymeric immunomodulator). It counts as cell-based. As to conditions: incubated 18 h at 37° C; QUANTIBlue absorbance 620 nm. How it is done:
Cells were incubated with each compound for 18 h at 37° C. Supernatant was removed and incubated with QUANTIBlue for 1 h, and the absorbance at 620 nm was measured. Error bars represent standard deviation (SD). Samples were run in triplicate.
RAW264.7 Macrophage (RAW-Blue) NF-κB assay: RAW-Blue cells (passage 5-15) were plated in a 96 well plate at a density of 100,000 cells/well in 180 μL DMEM containing 10% heat-inactivated FBS (HI-FBS) and selective antibiotics. The cells were treated with agonists for […] at 37° C. and 5% CO2. NF-κB activity was measured by a QUANTI-Blue (InvivoGen) assay and the absorbance was measured at 620 nm using a Multiskan FC plate reader (Thermo Scientific).

Data set [5] in a line: Systemic cytokines in CT26 tumor model after intratumoral injection. In kind it is in vivo, Balb/c mice. As to conditions: 2 h after intratumoral injection. How it is done:
FIGS. 17A-C (A) Outline of in vivo tumor model experiment. (B) Systemic IL-6 levels measured in the serum 2 h after intertumoral injection of compounds. (C) Systemic TNF-α levels measured in the serum 2 h after intertumoral injection of compounds.
0.2×10^6 CT-26 cells were injected subcutaneously into the flank of 6-week-old Balb/c mice (n=10 per group) in 100 μL of PBS. The tumor size was monitored on alternating days. Tumor volumes were measured using the equation V=1/2×L×W×W. When the tumors reached a size of approximately 75 mm3 (day 11), treatment was started. Various formulations (20 nmols of each agonist or PBS) were injected peritumorally every 4 days […]. Mice were euthanized when the tumors reached 20 mm in any linear dimension. Five mice for each group were used for blood analysis. Blood was collected two days post the first injection for hematological toxicity analysis and two hours post the second injection for systemic cytokine analysis.
After 11 days, the tumors were established and intratumoral injections were administered with the SMIP adjuvant and adjuvant dimers. At 2 h and 24 h after these injections, serum and blood were collected to examine systemic cytokines in the serum and perform a hematological analysis on the blood to better quantify adjuvant toxicity. Similar to the OVA vaccination model, the dimer adjuvants induced baseline levels of IL-6 and TNF-α as measured in the serum.

Regarding `COc1cc(CNC(=O)CCCC/C=C/C(C)C)ccc1O` [capsaicin], the “pro-inflammatory systemic IL-6 and TNF-α levels” value in data set [1] is reported as “reduce”.

As for `CCCCc1nc2c(N)nc3ccccc3c2n1Cc1ccc(CNC(=O)CCCCCNC(=O)CCC(NC(=O)CNC(=O)C(CCC(=O)NCCCCCC(=O)NCc2ccc(Cn3c(CCCC)nc4c(N)nc5ccccc5c43)cc2)NC(=O)CNC(=O)C(CCC(=O)NCCCCCC(=O)NCc2ccc(Cn3c(CCCC)nc4c(N)nc5ccccc5c43)cc2)NC(=O)CNC(=O)C(CCC(=O)NCCCCCC(=O)NCc2ccc(Cn3c(CCCC)nc4c(N)nc5ccccc5c43)cc2)NC(=O)CNC(=O)C(CCC(=O)NCCCCCC(=O)NCc2ccc(Cn3c(CCCC)nc4c(N)nc5ccccc5c43)cc2)NC(=O)CCC(=O)N2Cc3ccccc3-c3nnn(CCCCCC(=O)NC(Cc4ccc(O)c(O)c4)C(=O)NC(Cc4ccc(O)c(O)c4)C(=O)NC(Cc4ccc(O)c(O)c4)C(=O)NC(Cc4ccc(O)c(O)c4)C(N)=O)c3-c3ccccc32)C(N)=O)cc1` (centres unmarked) [pTLR7/8_mod], in the data set on cells from the dLNs, the “amount of IL-6 (FIG. 6B) produced by dLN cells” value is “highest levels”, the “amount of IL-23 (FIG. 6A) produced by dLN cells” value is listed as “highest levels” and the “amount of TNF-α (FIG. 6C) produced by dLN cells” value was “highest levels”. In addition, the “TNF-α concentration in supernatant” value with BMDMs [2] is on record as “smallest increase”. In the data set on BMDMs [3], the “levels of CD40” value is given as “greatest increase” and the “levels of CD86” value is “greatest increase”. For the same compound, the “serum titers of anti-OVA antibodies” value with OVA was “Highest”. Further, the NF-κB levels entry in data set [4] is listed as “increased”.

As for `CCOCc1nc2c(N)nc3ccccc3c2n1CC(C)(C)O` [Compound R848, resiquimod], in data set [5], the “systemic IL-6 levels in serum” value was “high levels” and the “systemic TNF-α levels in serum” value is given as “high levels”.

`CCCCCCCCCCCCCCCCCC(=O)NCCCCOn1c(CCCC)nc2c(N)nc3ccccc3c21` [Compound 3M-052]: in data set [5], the “systemic IL-6 levels in serum” value is recorded as “comparable” and the “systemic TNF-α levels in serum” value is on record as “comparable”.

Turning to `C=CCc1ccc(O)c(-c2ccc(O)c(CC=C)c2)c1` [honokiol], in data set [1], the “pro-inflammatory systemic IL-6 and TNF-α levels” value is recorded as “reduce”.
